Assay results taken from US6878722B2, “Substituted cycloalkyl P1′ hepatitis C virus inhibitors” (Bristol-Myers Squibb Company, priority 2002, dated 2005).
Read-outs that look alike come from different tables or passages of the source.

Legend:
[1] = test system: HCV replicon in Huh7 cells; experiment: HCV replicon cell-based assay (FRET); conditions: Hepatitis C virus
How it was run: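 Huh7 cells stably carrying a genotype 1b HCV replicon (IRES-neo-EMCV-IRES-NS3-NS5B) were treated with compound for 4 days at 37 °C in 0.5% DMSO final. Lysates containing 10 μM FRET peptide RET S1 were read kinetically at 340/490 nm to give NS3 protease activity, from which EC50 was derived.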

[2] = target: T1, HCV NS3/4A protease complex (BMS strain, genotype 1a) (Hepatitis C virus genotype 1a, UniProt P27958, C1454S); experiment: Recombinant HCV NS3/4A protease complex FRET peptide assay, BMS strain; assay type: biochemical
T1 construct: DNA encoding the recombinant HCV NS3/4A protease complex (amino acids 1027 to 1711) for these strains; inferred from the pET21b vector and Ni-NTA purification; made in house; host or cells: Escherichia coli BL21 (DE3), pET21b
T1 sequence (P27958 1658-1714, looked up, stated change not applied): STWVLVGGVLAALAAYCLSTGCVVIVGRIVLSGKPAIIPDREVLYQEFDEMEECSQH
T1 sequence (P27958 1027-1657, looked up, stated change not applied): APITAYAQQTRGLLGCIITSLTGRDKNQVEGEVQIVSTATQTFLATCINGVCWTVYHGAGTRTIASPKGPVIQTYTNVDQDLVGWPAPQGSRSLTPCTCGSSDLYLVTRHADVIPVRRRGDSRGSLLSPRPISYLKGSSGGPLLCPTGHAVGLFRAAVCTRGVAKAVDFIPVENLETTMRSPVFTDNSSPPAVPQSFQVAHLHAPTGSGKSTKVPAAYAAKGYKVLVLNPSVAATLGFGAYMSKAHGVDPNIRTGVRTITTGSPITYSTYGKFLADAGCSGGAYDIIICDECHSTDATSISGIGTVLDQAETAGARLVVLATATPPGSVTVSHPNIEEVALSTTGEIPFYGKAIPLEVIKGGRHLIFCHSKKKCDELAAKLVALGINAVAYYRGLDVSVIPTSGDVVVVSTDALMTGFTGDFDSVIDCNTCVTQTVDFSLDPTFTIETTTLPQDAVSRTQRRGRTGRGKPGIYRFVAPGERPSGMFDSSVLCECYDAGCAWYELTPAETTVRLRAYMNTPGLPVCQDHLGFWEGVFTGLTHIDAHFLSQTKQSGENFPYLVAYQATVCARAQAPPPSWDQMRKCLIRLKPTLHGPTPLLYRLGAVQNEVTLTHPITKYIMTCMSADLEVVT
How it was run: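 Recombinant NS3/4A complex (aa 1027–1711) with C-terminal three-lysine tail, C1711G and C1454S, expressed in E. coli BL21(DE3) and purified by Ni-NTA then Superdex-S200. Inhibition of the complex from each strain measured in vitro by FRET peptide cleavage.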

[3] = target: T2, HCV NS3/4A protease complex (H77C strain, 1a genotype) (Hepatitis C virus genotype 1a, UniProt P27958, C1454S); experiment: Recombinant HCV NS3/4A protease complex FRET peptide assay, H77C strain; assay type: biochemical
T2 construct: DNA encoding the recombinant HCV NS3/4A protease complex (amino acids 1027 to 1711) for these strains; inferred from the pET21b vector and Ni-NTA purification; made in house; host or cells: Escherichia coli BL21 (DE3), pET21b
T2 sequence (P27958 1027-1657 C1454S): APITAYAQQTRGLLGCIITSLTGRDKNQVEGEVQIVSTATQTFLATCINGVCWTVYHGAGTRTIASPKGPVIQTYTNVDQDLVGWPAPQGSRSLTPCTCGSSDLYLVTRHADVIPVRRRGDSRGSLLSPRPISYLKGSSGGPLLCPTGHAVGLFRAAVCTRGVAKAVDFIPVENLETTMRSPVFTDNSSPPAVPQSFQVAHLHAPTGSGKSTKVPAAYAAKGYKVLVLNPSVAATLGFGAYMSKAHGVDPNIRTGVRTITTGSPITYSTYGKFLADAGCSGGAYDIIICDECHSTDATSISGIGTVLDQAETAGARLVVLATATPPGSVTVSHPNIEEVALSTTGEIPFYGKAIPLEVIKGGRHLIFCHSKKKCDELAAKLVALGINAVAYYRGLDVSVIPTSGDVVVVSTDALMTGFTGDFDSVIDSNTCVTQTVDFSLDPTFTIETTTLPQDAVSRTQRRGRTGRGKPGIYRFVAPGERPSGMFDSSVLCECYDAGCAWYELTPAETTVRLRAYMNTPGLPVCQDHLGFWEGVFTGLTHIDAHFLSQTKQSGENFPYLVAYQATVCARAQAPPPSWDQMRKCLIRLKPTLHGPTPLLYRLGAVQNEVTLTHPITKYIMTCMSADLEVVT
T2 sequence (P27958 1658-1714 partner, looked up, stated change not applied): as the sequence (P27958 1658-1714, looked up, stated change not applied) above
Excerpt: The purpose of this in vitro assay was to measure the inhibition of HCV NS3 protease complexes, derived from the BMS, H77C or J416S strains, as described below, by compounds of the present invention.
Serum from an HCV-infected patient was obtained from Dr. T. Wright, San Francisco Hospital. An engineered full-length cDNA (compliment deoxyribonucleic acid) template of the HCV genome (BMS strain) was constructed from DNA fragments obtained by reverse transcription-PCR (RT-PCR) of serum RNA (ribonucleic acid) and using primers selected on the basis of homology between other genotype 1a strains. […] The infectious clones, H77C (1a genotype) and J4L6S (1b genotype) were obtained from R. Purcell (NIH) and the sequences are published in Genbank (AAB67036, see Yanagi,M., Purcell,R. H., Emerson,S. U. and Bukh,J. Proc. Natl. Acad. Sci. U.S.A. 94(16),8738-8743 (1997); AF054247, see Yanagi,M., St Claire,M., Shapiro,M., Emerson,S. U., Purcell,R. H. and Bukh,J, Virology 244 (1), 161-172. (1998)).
The BMS, H77C and J4L6S strains were used for production of recombinant NS3/4A protease complexes. DNA encoding the recombinant HCV NS3/4A protease complex (amino acids 1027 to 1711) for these strains were manipulated as described by P. Gallinari et al. (see Gallinari P, Paolini C, Brennan D, Nardi C, Steinkuhler C, De Francesco R. Biochemistry. 38(17):5620-32, (1999)). […]

C=CC1C[C@]1(NC(=O)[C@@H]1C[C@@H](Oc2cc(-c3ccccc3)nc3cc(OC)ccc23)CN1C(=O)[C@@H](NC(=O)OC(C)(C)C)C(C)(C)C)C(=O)NS(=O)(=O)C1(C)CC1 (stereo in doubt) [Compound 1, (1-{4-(7-Methoxy-2-phenylquinolin-4-yloxy)-2-[1-(1-methylcyclopropanesulfonylaminocarbonyl)-2-vinylcyclopropylcarbamoyl]pyrrolidine-1-carbonyl}-2,2-dimethylpropyl)carbamic acid tert-butyl ester]
EC50 ([1]; Huh-7, 96 h, Huh7 cells, 4 days, read-out: EC50 value in the replicon assay): 13.9 nM
EC50 ([1]; Huh-7, HCV replicon, read-out: EC50 range): < 50 nM
IC50 ([2]; IC50 against the NS3/4A BMS strain in the enzyme assay, BMS strain): 1.8 nM
IC50 ([2]; IC50 range, NS3/4A BMS Strain): < 50 nM
IC50 [3]: 1.2 nM
